5 compounds from publication PMC3629081, “Tetrahydropyrazolo[1,5-a]Pyrimidine-3-Carboxamide and N-Benzyl-6′,7′-Dihydrospiro[Piperidine-4,4′-Thieno[3,2-c]Pyran] Analogues with Bactericidal Efficacy against Mycobacterium tuberculosis Targeting MmpL3” (PLoS ONE, 2013) can be followed below.

One test has as its system M. tuberculosis. It is filed as cell-based, Mycobacterium tuberculosis. To be noted: 10x MIC.
The test system of test [1] is M. tuberculosis H37Rv mutants with MmpL3 mutations. It is filed as cell-based, Mycobacterium tuberculosis.

Each structure is given as a SMILES string. “And” between values parts separate entries of the source, which are not always exact repeats. Equal values may be shown once.

With `CCc1ccc([C@H]2C[C@@H](C(F)(F)F)n3ncc(C(=O)NCc4ccc(OC)cc4)c3N2)cc1` [Compound 1, (5R,7S)-5-(4-ethylphenyl)-N-(4-methoxybenzyl)-7-(trifluoromethyl)-4,5,6,7-tetrahydropyrazolo[1,5-a]pyrimidine-3-carboxamide], the “frequency of spontaneous resistant mutant generation” value in the test on M. tuberculosis was 6.4×10^−8 mutant/cfus.

For the compound `c1cc2c(s1)CCOC21CCN(Cc2ccc3c(c2)OCCO3)CC1` [Compound 2], in the test with M. tuberculosis, the “frequency of spontaneous resistant mutant generation” value is 3.6×10^−8 mutant/cfus.

As to `CC[C@@H](CO)NCCN[C@@H](CC)CO` [Ethambutol], in test [1], the “Ratio MICmut/MICwt” value is 0.5 and 1.0 and 0.8; the “susceptibility of all isolated mutants to classic antitubercular drugs” value (from here on “susceptibility of all isolated mutants”) is on record as “susceptible”.

For `CC(=O)NC[C@H]1CN(c2ccc(N3CCOCC3)c(F)c2)C(=O)O1` [Linezolid], in test [1], the “Ratio MICmut/MICwt” value was 0.5 and 1.0; the “susceptibility of all isolated mutants” value is “susceptible”.

As for `COc1c(N2C[C@@H]3CCCN[C@@H]3C2)c(F)cc2c(=O)c(C(=O)O)cn(C3CC3)c12` [Moxifloxacin], in test [1], the “Ratio MICmut/MICwt” value is 1.0 and 0.5; the “susceptibility of all isolated mutants” value was “susceptible”.
